Experimental data reported in patent publication US20160083357A1, “NOVEL TETRAZOLONE DERIVATIVES” (Hoffmann-La Roche Inc., priority 2013, published 2016).
Where two headings read alike, the source gives them in different places.

Experiments:
human CB1 receptors = target: T1, human CB1 receptors (Homo sapiens, UniProt P21554); test: cAMP assay, human CB1; type: cell-based
T1 construct: expressed in transfected cells; host or cells: CHO cells
Procedure: (§1) CHO cells expressing human CB1 or CB2 receptors are seeded 17-24 hours prior to the experiment 50.000 cells per well in a black 96 well plate with flat clear bottom (Corning Costar #3904) in DMEM (Invitrogen No. 31331), lx HT supplement, with 10% fetal calf serum and incubated at 5% CO2 and 37° C. in a humidified incubator. The growth medium was exchanged with Krebs Ringer Bicarbonate buffer with 1 mM IBMX and incubated at 30° C. for 30 min. Compounds were added to a final assay volume of 100 μl and incubated for 30 min at 30° C. Using the cAMP-Nano-TRF detection kit the assay (Roche Diagnostics) was stopped by the addition of 50 μl lysis reagent (Tris, NaCl, 1.5% Triton X100, 2.5% NP40, 10% NaN3) and 50 μl detection solutions (20 μM mAb Alexa700-cAMP 1:1, and 48 μM Ruthenium-2-AHA-cAMP) and shaken for 2 h at room temperature. The time-resolved energy transfer is measured by a TRF reader (Evotec Technologies GmbH), equipped with a ND:YAG laser as excitation source. The plate is measured twice with the excitation at 355 nm and at the emission with a delay of 100 ns and a gate of 100 ns, total exposure time 10 s at 730 (bandwidth 30 nm) or 645 nm (bandwidth 75 nm), respectively. The FRET signal is calculated as follows: FRET=T730-Alexa730-P(T645-B645) with P=Ru730-B730/Ru645-B645, where T730 is the test well measured at 730 nM, T645 is the test well measured at 645 nm, B730 and B645 are the buffer controls at 730 nm and 645 nm, respectively. cAMP content is determined from the function of a standard curve spanning from 10 μM to 0.13 nM cAMP.
(§2) EC50 values were determined using Activity Base analysis (ID Business Solution, Limited). The EC50 values for a wide range of cannabinoid agonists generated from this assay were in agreement with the values published in the scientific literature.

human CB2 receptors = target: T2, human CB2 receptors (Homo sapiens, UniProt P34972); test: cAMP assay, human CB2; type: cell-based
T2 construct: expressed in transfected cells; host or cells: CHO cells
Procedure: as §1, §2

[1] = functional cAMP assay, CHO cells expressing human CB1, read-out: Ec50: CB1 - hu cAMP
[2] = functional cAMP assay, CHO cells expressing human CB2, read-out: Ec50: CB2 - hu cAMP

T1 sequence (P21554 whole entry): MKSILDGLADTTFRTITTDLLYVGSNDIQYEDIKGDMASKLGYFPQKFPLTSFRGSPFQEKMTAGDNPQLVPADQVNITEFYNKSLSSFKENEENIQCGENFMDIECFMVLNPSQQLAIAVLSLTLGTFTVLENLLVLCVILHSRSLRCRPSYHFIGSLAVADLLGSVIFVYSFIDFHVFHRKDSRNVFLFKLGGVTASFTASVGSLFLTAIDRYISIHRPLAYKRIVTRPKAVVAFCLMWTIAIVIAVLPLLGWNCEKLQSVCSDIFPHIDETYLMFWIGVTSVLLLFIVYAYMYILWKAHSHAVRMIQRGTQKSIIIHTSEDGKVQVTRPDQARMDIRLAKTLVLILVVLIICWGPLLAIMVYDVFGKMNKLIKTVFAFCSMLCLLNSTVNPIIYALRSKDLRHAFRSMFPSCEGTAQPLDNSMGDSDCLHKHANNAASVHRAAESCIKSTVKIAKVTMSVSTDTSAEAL
T2 sequence (P34972 whole entry): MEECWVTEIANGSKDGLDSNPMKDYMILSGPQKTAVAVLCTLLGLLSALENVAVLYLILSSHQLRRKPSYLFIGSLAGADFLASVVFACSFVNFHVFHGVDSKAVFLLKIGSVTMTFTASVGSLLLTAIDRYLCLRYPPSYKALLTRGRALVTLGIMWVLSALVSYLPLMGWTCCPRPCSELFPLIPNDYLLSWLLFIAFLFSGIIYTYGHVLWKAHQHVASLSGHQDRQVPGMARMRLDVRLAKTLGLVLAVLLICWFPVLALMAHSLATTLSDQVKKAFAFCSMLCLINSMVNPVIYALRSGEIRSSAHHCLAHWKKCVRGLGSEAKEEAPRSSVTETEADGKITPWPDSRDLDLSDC

| Compound | EC50 (human CB1 receptors; [1]) [nM] | EC50 (human CB2 receptors; [2]) [nM] | EC50 (human CB1 receptors) [nM] | EC50 (human CB2 receptors) [nM] |
| --- | --- | --- | --- | --- |
| COC[C@@H]1CCCN1C(=O)n1nnn(-c2cccc(F)c2)c1=O [Example 21, 1-(3-Fluoro-phenyl)-4-((S)-2-methoxymethyl-pyrrolidine-1-carbonyl)-1,4-dihydro-tetrazol-5-one] | > 10000 | 97.5 |  |  |
| O=C(N1CCN(c2cnccn2)CC1)n1nnn(-c2cccc(F)c2)c1=O [Example 30, 1-(3-Fluoro-phenyl)-4-(2,3,5,6-tetrahydro-[1,2′]bipyrazinyl-4-carbonyl)-1,4-dihydro-tetrazol-5-one] | > 10000 | 205 |  |  |
| COCC1CCN(C(=O)n2nnn(-c3cccc(F)c3)c2=O)CC1 [Example 60, 1-(3-Fluoro-phenyl)-4-(4-methoxymethyl-piperidine-1-carbonyl)-1,4-dihydro-tetrazol-5-one] | > 10000 | 1.3 |  |  |
| CC(=O)N[C@@H]1CCN(C(=O)n2nnn(-c3ccc(Cl)cc3)c2=O)C1 [Example 67, N—{(R)-1-[4-(4-Chloro-phenyl)-5-oxo-4,5-dihydro-tetrazole-1-carbonyl]-pyrrolidin-3-yl}-acetamide] | > 10000 | 14.6 |  |  |
| Cc1cc(C2CCCN2C(=O)n2nnn(-c3cccc(F)c3)c2=O)on1 (centres unmarked) [Example 20, 1-(3-Fluoro-phenyl)-4-[2-(3-methyl-isoxazol-5-yl)-pyrrolidine-1-carbonyl]-1,4-dihydro-tetrazol-5-one] | > 10000 | 6.9 |  |  |
| O=C(N1CCOCC1)n1nnn(-c2c(F)cccc2F)c1=O [Example 122, 1-(2,6-difluorophenyl)-4-(morpholine-4-carbonyl)tetrazol-5-one] |  |  | > 10000 | 19 |
| O=C(N1CCCC1c1ccc(F)cc1)n1nnn(-c2cccc(F)c2)c1=O (centres unmarked) [Example 10, 1-(3-Fluoro-phenyl)-4-[2-(4-fluoro-phenyl)-pyrrolidine-1-carbonyl]-1,4-dihydro-tetrazol-5-one] | > 10000 | 5.9 |  |  |
| CC(=O)N(C)C1CCN(C(=O)n2nnn(-c3cccc(F)c3)c2=O)C1 (centres unmarked) [Example 49, N-{1-[4-(3-Fluoro-phenyl)-5-oxo-4,5-dihydro-tetrazole-1-carbonyl]-pyrrolidin-3-yl}-N-methyl-acetamide] | > 10000 | 14.3 |  |  |
| Cn1ccc(C2CCCN2C(=O)n2nnn(-c3cccc(F)c3)c2=O)n1 (centres unmarked) [Example 19, 1-(3-Fluoro-phenyl)-4-[2-(1-methyl-1H-pyrazol-3-yl)-pyrrolidine-1-carbonyl]-1,4-dihydro-tetrazol-5-one] | > 10000 | 25 |  |  |
| CC(=O)NC1CCN(C(=O)n2nnn(-c3cccc(F)c3)c2=O)C1 (centres unmarked) [Example 23, N-{1-[4-(3-Fluoro-phenyl)-5-oxo-4,5-dihydro-tetrazole-1-carbonyl]-pyrrolidin-3-yl}-acetamide] | > 10000 | 31.4 |  |  |
| O=c1n(Cc2ccc(F)cc2)nnn1-c1cccc(F)c1 [Example 14, 1-(4-Fluoro-benzyl)-4-(3-fluoro-phenyl)-1,4-dihydro-tetrazol-5-one] | > 10000 | 1180 |  |  |
| CC(=O)N[C@@H]1CCN(C(=O)n2nnn(-c3cccc(OC(F)(F)F)c3)c2=O)C1 [Example 66, N—{(R)-1-[5-Oxo-4-(3-trifluoromethoxy-phenyl)-4,5-dihydro-tetrazole-1-carbonyl]-pyrrolidin-3-yl}-acetamide] | > 10000 | 20.4 |  |  |
| CCN(CCOC)C(=O)n1nnn(-c2ccc(Cl)cc2)c1=O [Example 82, 4-(4-Chloro-phenyl)-5-oxo-4,5-dihydro-tetrazole-1-carboxylic acid ethyl-(2-methoxy-ethyl)-amide] |  |  | > 10000 | 3.3 |
| O=C(N1CCC(F)(F)C1)n1nnn(-c2cccc(F)c2)c1=O [Example 45, 1-(3,3-Difluoro-pyrrolidine-1-carbonyl)-4-(3-fluoro-phenyl)-1,4-dihydro-tetrazol-5-one] | > 10000 | 797 |  |  |
| CCCN(CCOC)C(=O)n1nnn(-c2cccc(F)c2)c1=O [Example 56, 4-(3-Fluoro-phenyl)-5-oxo-4,5-dihydro-tetrazole-1-carboxylic acid (2-methoxy-ethyl)-propyl-amide] |  |  | > 10000 | 17 |
| O=C(N1CCOCC1)n1nnn(-c2cccc(F)c2)c1=O [Example 4, 1-(3-Fluoro-phenyl)-4-(morpholine-4-carbonyl)-1,4-dihydro-tetrazol-5-one] | > 10000 | 3 |  |  |
| CCN(Cc1ccccc1)C(=O)n1nnn(-c2ccc(Cl)nc2)c1=O [Example 53, 4-(6-Chloro-pyridin-3-yl)-5-oxo-4,5-dihydro-tetrazole-1-carboxylic acid benzyl-ethyl-amide] |  |  | > 10000 | 1 |
| NC(=O)[C@@H]1CCCN1C(=O)n1nnn(-c2cccc(F)c2)c1=O [Example 22, (S)-1-[4-(3-Fluoro-phenyl)-5-oxo-4,5-dihydro-tetrazole-1-carbonyl]-pyrrolidine-2-carboxylic acid amide] | > 10000 | 1920 |  |  |
| O=C(N1CCCC1Cc1ccccc1)n1nnn(-c2cccc(F)c2)c1=O (centres unmarked) [Example 9, 1-(2-Benzyl-pyrrolidine-1-carbonyl)-4-(3-fluoro-phenyl)-1,4-dihydro-tetrazol-5-one] | > 10000 | 4.1 |  |  |
| CN(C(=O)n1nnn(-c2cccc(F)c2)c1=O)c1ccccn1 [Example 32, 4-(3-Fluoro-phenyl)-5-oxo-4,5-dihydro-tetrazole-1-carboxylic acid methyl-pyridin-2-yl-amide] | > 10000 | 152 |  |  |
| Cn1nccc1C1CCCN1C(=O)n1nnn(-c2cccc(F)c2)c1=O (centres unmarked) [Example 18, 1-(3-Fluoro-phenyl)-4-[2-(2-methyl-2H-pyrazol-3-yl)-pyrrolidine-1-carbonyl]-1,4-dihydro-tetrazol-5-one] | > 10000 | 219 |  |  |

Second part, led by results:

| EC50 (human CB1 receptors; [1]) [nM] | EC50 (human CB2 receptors; [2]) [nM] | Compound | EC50 (human CB1 receptors) [nM] | EC50 (human CB2 receptors) [nM] |
| --- | --- | --- | --- | --- |
| > 10000 | 67 | O=C(CN1CCN(C(=O)n2nnn(-c3cccc(OC(F)(F)F)c3)c2=O)CC1)N1CCOCC1 [Example 90, 1-[4-(2-Morpholin-4-yl-2-oxo-ethyl)-piperazine-1-carbonyl]-4-(3-trifluoromethoxy-phenyl)-1,4-dihydro-tetrazol-5-one] |  |  |
| > 10000 | 16.9 | O=C(CN1CCN(C(=O)n2nnn(-c3cccc(Cl)c3)c2=O)CC1)N1CCOCC1 [Example 89, 1-(3-Chloro-phenyl)-4-[4-(2-morpholin-4-yl-2-oxo-ethyl)-piperazine-1-carbonyl]-1,4-dihydro-tetrazol-5-one] |  |  |
| > 10000 | 12.7 | CCNC(=O)CN1CCN(C(=O)n2nnn(-c3cccc(Cl)c3)c2=O)CC1 [Example 104, 2-{4-[4-(3-Chloro-phenyl)-5-oxo-4,5-dihydro-tetrazole-1-carbonyl]-piperazin-1-yl}-N-ethyl-acetamide] |  |  |
| > 10000 | 114 | CC(C(=O)N1CCCC1)N1CCN(C(=O)n2nnn(-c3ccc(Cl)cc3)c2=O)CC1 (centres unmarked) [Example 118, 1-(4-Chloro-phenyl)-4-[4-(1-methyl-2-oxo-2-pyrrolidin-1-yl-ethyl)-piperazine-1-carbonyl]-1,4-dihydro-tetrazol-5-one] |  |  |
| > 10000 | 16.7 | CCN(C(C)=O)C1CCN(C(=O)n2nnn(-c3cccc(Cl)c3)c2=O)C1 (centres unmarked) [Example 71, N-{1-[4-(3-Chloro-phenyl)-5-oxo-4,5-dihydro-tetrazole-1-carbonyl]-pyrrolidin-3-yl}-N-ethyl-acetamide] |  |  |
| > 10000 | 1990 | CCOC(=O)Cn1nnn(-c2cccc(Cl)c2)c1=O [Example 114, [4-(3-Chloro-phenyl)-5-oxo-4,5-dihydro-tetrazol-1-yl]-acetic acid ethyl ester] |  |  |
| > 10000 | 28.5 | Cc1cc(C2CCCN2C(=O)n2nnn(-c3cccc(OC(F)(F)F)c3)c2=O)on1 (centres unmarked) [Example 75, 1-[2-(3-Methyl-isoxazol-5-yl)-pyrrolidine-1-carbonyl]-4-(3-trifluoromethoxy-phenyl)-1,4-dihydro-tetrazol-5-one] |  |  |
| > 10000 | 6.6 | Cc1ccc(-n2nnn(C(=O)N3CCOCC3)c2=O)cc1 [Example 128, 1-(4-methylphenyl)-4-(morpholine-4-carbonyl)tetrazol-5-one] |  |  |
| > 10000 | 9.1 | COc1cccc(-n2nnn(C(=O)N3CCOCC3)c2=O)c1 [Example 129, 1-(3-methoxyphenyl)-4-(morpholine-4-carbonyl)tetrazol-5-one] |  |  |
| > 10000 | 13 | O=C(N1CCOCC1)n1nnn(-c2cc(F)cc(F)c2)c1=O [Example 126, 1-(3,5-difluorophenyl)-4-(morpholine-4-carbonyl)tetrazol-5-one] |  |  |
